A short description of the test: Inhibition of recombinant perforin mediated lysis of human Jurkat cells pre-incubated for 30 mins with perforin followed by incubation with Jurkat cells at 37 degC for 4 hrs in presence of 0.1% BSA by [51Cr] release assay.
Usually IC50 stands for the concentration needed to halve the response being measured. Turning to `N#CC(=Cc1ccc(OCC(N)=O)cc1)c1nc2ccccc2[nH]1`, the IC50 is greater than 20 µM.

Turning to `CNC(=O)CCc1ccc(-c2c(C#N)c(N)n3c(nc4ccccc43)c2C#N)cc1`, the IC50 is greater than 20 µM.

Regarding `N#Cc1c(-c2ccc(OCC(=O)NCCO)cc2)c(C#N)c2nc3ccccc3n2c1N`, the concentration for half-maximal inhibition (IC50) stood at 8.25 µM.

Turning to `Cc1cc2nc3c(C#N)c(-c4ccc(OCC(N)=O)cc4)c(C#N)c(N)n3c2cc1C`, the half-inhibitory concentration (IC50) is 3.53 µM.

On to `N#Cc1c(-c2ccc(OCC(N)=O)cc2)c(C#N)c2nc3ccccc3n2c1N`, for which the IC50 was determined as 5.19 µM.

`CN(C)C(=O)c1ccc(-c2c(C#N)c(N)n3c(nc4ccccc43)c2C#N)cc1`: the IC50 was greater than 20 µM.

For the compound `COc1cccc2c1nc1c(C#N)c(-c3ccc(OCC(N)=O)cc3)c(C#N)c(N)n12`, the 50% inhibitory concentration (IC50) is 7.49 µM.

For `CN(C)C(=O)COc1ccc(-c2c(C#N)c(N)n3c(nc4ccccc43)c2C#N)cc1`, the half-inhibitory concentration (IC50) is 6.89 µM.

For the compound `N#Cc1c(-c2ccc(OCC(N)=O)cc2)c(C#N)c2nc3c(Cl)cccc3n2c1N`, the IC50 is 5.67 µM.

Turning to `N#Cc1c(-c2ccc(C(N)=O)cc2)c(C#N)c2nc3ccccc3n2c1N`, the half-maximal inhibitory concentration (IC50) is 3 µM.

As for `CN(C)CCNC(=O)c1ccc(-c2c(C#N)c(N)n3c(nc4ccccc43)c2C#N)cc1`, the IC50 is greater than 20 µM.

In the case of `CCNC(=O)COc1ccc(-c2c(C#N)c(N)n3c(nc4ccccc43)c2C#N)cc1`, the concentration for half-maximal inhibition (IC50) worked out at 7.44 µM.

Regarding `CC(O)CNC(=O)COc1ccc(-c2c(C#N)c(N)n3c(nc4ccccc43)c2C#N)cc1` (configuration not stated), the IC50 was greater than 20 µM.

As to `N#Cc1c(-c2ccc(OCC(=O)NCCc3ccncc3)cc2)c(C#N)c2nc3ccccc3n2c1N`, the IC50 was found to be 10 µM.

Regarding `CNC(=O)COc1ccc(-c2c(C#N)c(N)n3c(nc4ccccc43)c2C#N)cc1`, the half-inhibitory concentration (IC50) stood at 4.56 µM.

In the case of `COc1cccc2[nH]c(C(C#N)=Cc3ccc(OCC(N)=O)cc3)nc12`, the 50% inhibitory concentration (IC50) was greater than 20 µM.

For the compound `CC(O)CNC(=O)c1ccc(-c2c(C#N)c(N)n3c(nc4ccccc43)c2C#N)cc1` (configuration not stated), the IC50 worked out at 5.55 µM.

Consider `N#Cc1c(-c2ccc(C(=O)NCCc3ccncc3)cc2)c(C#N)c2nc3ccccc3n2c1N`, for which the half-maximal inhibitory concentration (IC50) amounted to 10.5 µM.

`CCCNC(=O)COc1ccc(-c2c(C#N)c(N)n3c(nc4ccccc43)c2C#N)cc1`: the half-maximal inhibitory concentration (IC50) was found to be 13.9 µM.

For the compound `N#Cc1c(-c2ccc(OCC(=O)NCCCO)cc2)c(C#N)c2nc3ccccc3n2c1N`, the IC50 is greater than 20 µM.

Consider `CNC(=O)c1ccc(-c2c(C#N)c(N)n3c(nc4ccccc43)c2C#N)cc1`, for which the IC50 turned out to be 1.04 µM.

For the compound `CN(C)C(=O)CCc1ccc(-c2c(C#N)c(N)n3c(nc4ccccc43)c2C#N)cc1`, the IC50 was greater than 20 µM.

For `N#CC(=Cc1ccc(OCC(N)=O)cc1)c1nc2cccc(Cl)c2[nH]1`, the concentration for half-maximal inhibition (IC50) is 6.72 µM.

For `Cc1ccc2c(nc3c(C#N)c(-c4ccc(OCC(N)=O)cc4)c(C#N)c(N)n32)c1C`, the IC50 was 5.21 µM.

Take `Cc1cccc2c1nc1c(C#N)c(-c3ccc(OCC(N)=O)cc3)c(C#N)c(N)n12`: the IC50 came out at 6.87 µM.

As to `N#Cc1c(-c2ccc(C(=O)NCCCO)cc2)c(C#N)c2nc3ccccc3n2c1N`, the IC50 came to 4.18 µM.

On to `N#Cc1c(-c2ccc(C(=O)NCCO)cc2)c(C#N)c2nc3ccccc3n2c1N`, for which the IC50 came to 3.08 µM.

With `Cc1ccc2nc(C(C#N)=Cc3ccc(OCC(N)=O)cc3)[nH]c2c1C`, the concentration for half-maximal inhibition (IC50) is greater than 20 µM.

`N#Cc1c(-c2ccc(C(=O)NCC(O)CO)cc2)c(C#N)c2nc3ccccc3n2c1N` (configuration not stated): the IC50 stood at 3.24 µM.

Regarding `CC(C)NC(=O)COc1ccc(-c2c(C#N)c(N)n3c(nc4ccccc43)c2C#N)cc1`, the IC50 came out at 13.2 µM.

On to `Cc1cc2nc(C(C#N)=Cc3ccc(OCC(N)=O)cc3)[nH]c2cc1C`, for which the IC50 amounted to 5.14 µM.

As for `N#Cc1c(-c2ccc(OCC(=O)NCC(O)CO)cc2)c(C#N)c2nc3ccccc3n2c1N` (configuration not stated), the 50% inhibitory concentration (IC50) was greater than 20 µM.

Turning to `N#Cc1c(-c2ccc(C(=O)NCCN3CCOCC3)cc2)c(C#N)c2nc3ccccc3n2c1N`, the IC50 came to 10 µM.

Regarding `N#Cc1c(-c2ccc(C(=O)NCCN3CCCCC3)cc2)c(C#N)c2nc3ccccc3n2c1N`, the 50% inhibitory concentration (IC50) is greater than 20 µM.

For the compound `Cc1cccc2[nH]c(C(C#N)=Cc3ccc(OCC(N)=O)cc3)nc12`, the IC50 was greater than 20 µM.

Consider `N#Cc1c(-c2ccc(OCCO)cc2)c(C#N)c2nc3ccccc3n2c1N`, for which the 50% inhibitory concentration (IC50) amounted to 2.87 µM.

As to `CCNC(=O)c1ccc(-c2c(C#N)c(N)n3c(nc4ccccc43)c2C#N)cc1`, the 50% inhibitory concentration (IC50) is 3.16 µM.

The values are drawn from BindingDB's records for doi:10.1016/j.bmc.2011.05.013 (University of Auckland, 2011).
